The record followed here is US10730866B2, “Indole derivatives and use thereof” (Purdue Pharma L.P., priority 2014, dated 2020).

The target of this assay is human Nav1.7 (Homo sapiens (Human), UniProt Q15858). In words: FLIPR or FLIPR TETRA sodium dye assay for sodium channel blocking activity. The note with it: recombinant HEK293 cells expressing human Nav1.7. It counts as cell-based. Here is the method:
In vitro assays were performed in a recombinant cell line expressing cDNA encoding the alpha subunit (Nav1.7, SCN9a, PN1, NE) of human Nav1.7 (Accession No. NM_002977). The cell line was provided by investigators at Yale University (Cummins et al, J. Neurosci. 18(23): 9607-9619 (1998)). For dominant selection of the Nav1.7-expressing clones, the expression plasmid co-expressed the neomycin resistance gene. The cell line was constructed in the human embryonic kidney cell line, HEK293, under the influence of the CMV […] promoter, and stable clones were selected using limiting dilution cloning and antibiotic selection using the neomycin analogue, G418. Recombinant beta and gamma subunits were not introduced into this cell line. Additional cell lines expressing recombinant Nav1.7 cloned from other species can also be used, alone or in combination with various beta subunits, gamma subunits or chaperones.
Unless otherwise noted, cell culture reagents were purchased from Mediatech of Herndon, Va. The recombinant Nav1.7/HEK293 cells were routinely cultured in growth medium consisting of Dulbecco's […] essential medium containing 10% fetal bovine serum (FBS, Hyclone, Thermo Fisher Scientific, Logan, Utah), 100 U/mL penicillin, 100 μg/mL streptomycin, 2-4 mM L-glutamine, and […] G418. For natural, non-recombinant cell lines, the selective antibiotic was omitted, and additional media formulations can be applied as needed.
The final buffer consisted of 20 mM Hepes, pH 7.3, 1.261 mM CaCl2, 0.493 mM MgCl2, 0.407 mM Mg(SO)4, 5.33 mM KCl, 0.441 mM KH2PO4, 137 mM NaCl, 0.336 mM Na2HPO4 and […] D-glucose (Hanks et al., Proc. Soc. Exp. Biol. Med. 71:196 (1949)), and the simple formulation was typically the basic buffer throughout the assay (i.e., all wash and addition steps).
The fluorescence indicator used in the primary fluorescence assay was the cell permeant version of CoroNa™ Green (Invitrogen, Molecular Probes, Eugene, Oreg.), a dye that emits light in the fluorescence range (Harootunian et al., J. Biol. Chem. 264(32):19458-19467 (1989)). The intensity of this emission, but not the wavelength range, is increased when the dye is exposed to Na^+ ions, which it can bind with partial selectivity. Cells expressing Nav1.7 or other sodium channels were loaded with the CoroNa™ Green dye immediately in advance of the fluorescence assay, and then, after agonist stimulation, the mobilization of Na^+ ions was detected as the Na^+ ions flowed from the extracellular fluid into the cytoplasm through the activated sodium channel pores. The dye was stored in the dark as a lyophilized powder, and then an aliquot was dissolved immediately before the cell loading procedure, according to the instructions of the manufacturer, to a stock concentration of 10 mM in DMSO. It was then diluted in the assay buffer to a 4× concentrated working solution, so that the final concentration of dye in the cell loading buffer was 5 μM.
In the fluorescence assays, two agonists were used in combination, namely 1) veratridine; and 2) the venom from the yellow scorpion, Leiurus quinquestriatus hebraeus. Veratridine is an alkaloid small molecule that facilitates the capture of channel openings by inhibiting inactivation, and the scorpion venom is a natural preparation that includes peptide toxins selective for different subsets of voltage-gated sodium channels. These scorpion toxins inhibit the fast inactivation of their cognate target channels. Stock solutions of the agonists were prepared to 40 mM in DMSO (veratridine) and 1 mg/mL in dH2O (scorpion venom), and then diluted to make a 4× or 2× stock (depending on the particular assay) in assay buffer, the final concentration being 100 μM (veratridine) and 10 μg/mL (scorpion venom). Both of the agonists were purchased from Sigma Aldrich, St. Louis, Mo.
Test compounds were dissolved in DMSO to yield 10 mM stock solutions. […]

Structures are written as SMILES. Where only a bound is given, the exact number is not on record here.

Chain of human Nav1.7 (Q15858 other isoform, or with tags, fused parts or gaps): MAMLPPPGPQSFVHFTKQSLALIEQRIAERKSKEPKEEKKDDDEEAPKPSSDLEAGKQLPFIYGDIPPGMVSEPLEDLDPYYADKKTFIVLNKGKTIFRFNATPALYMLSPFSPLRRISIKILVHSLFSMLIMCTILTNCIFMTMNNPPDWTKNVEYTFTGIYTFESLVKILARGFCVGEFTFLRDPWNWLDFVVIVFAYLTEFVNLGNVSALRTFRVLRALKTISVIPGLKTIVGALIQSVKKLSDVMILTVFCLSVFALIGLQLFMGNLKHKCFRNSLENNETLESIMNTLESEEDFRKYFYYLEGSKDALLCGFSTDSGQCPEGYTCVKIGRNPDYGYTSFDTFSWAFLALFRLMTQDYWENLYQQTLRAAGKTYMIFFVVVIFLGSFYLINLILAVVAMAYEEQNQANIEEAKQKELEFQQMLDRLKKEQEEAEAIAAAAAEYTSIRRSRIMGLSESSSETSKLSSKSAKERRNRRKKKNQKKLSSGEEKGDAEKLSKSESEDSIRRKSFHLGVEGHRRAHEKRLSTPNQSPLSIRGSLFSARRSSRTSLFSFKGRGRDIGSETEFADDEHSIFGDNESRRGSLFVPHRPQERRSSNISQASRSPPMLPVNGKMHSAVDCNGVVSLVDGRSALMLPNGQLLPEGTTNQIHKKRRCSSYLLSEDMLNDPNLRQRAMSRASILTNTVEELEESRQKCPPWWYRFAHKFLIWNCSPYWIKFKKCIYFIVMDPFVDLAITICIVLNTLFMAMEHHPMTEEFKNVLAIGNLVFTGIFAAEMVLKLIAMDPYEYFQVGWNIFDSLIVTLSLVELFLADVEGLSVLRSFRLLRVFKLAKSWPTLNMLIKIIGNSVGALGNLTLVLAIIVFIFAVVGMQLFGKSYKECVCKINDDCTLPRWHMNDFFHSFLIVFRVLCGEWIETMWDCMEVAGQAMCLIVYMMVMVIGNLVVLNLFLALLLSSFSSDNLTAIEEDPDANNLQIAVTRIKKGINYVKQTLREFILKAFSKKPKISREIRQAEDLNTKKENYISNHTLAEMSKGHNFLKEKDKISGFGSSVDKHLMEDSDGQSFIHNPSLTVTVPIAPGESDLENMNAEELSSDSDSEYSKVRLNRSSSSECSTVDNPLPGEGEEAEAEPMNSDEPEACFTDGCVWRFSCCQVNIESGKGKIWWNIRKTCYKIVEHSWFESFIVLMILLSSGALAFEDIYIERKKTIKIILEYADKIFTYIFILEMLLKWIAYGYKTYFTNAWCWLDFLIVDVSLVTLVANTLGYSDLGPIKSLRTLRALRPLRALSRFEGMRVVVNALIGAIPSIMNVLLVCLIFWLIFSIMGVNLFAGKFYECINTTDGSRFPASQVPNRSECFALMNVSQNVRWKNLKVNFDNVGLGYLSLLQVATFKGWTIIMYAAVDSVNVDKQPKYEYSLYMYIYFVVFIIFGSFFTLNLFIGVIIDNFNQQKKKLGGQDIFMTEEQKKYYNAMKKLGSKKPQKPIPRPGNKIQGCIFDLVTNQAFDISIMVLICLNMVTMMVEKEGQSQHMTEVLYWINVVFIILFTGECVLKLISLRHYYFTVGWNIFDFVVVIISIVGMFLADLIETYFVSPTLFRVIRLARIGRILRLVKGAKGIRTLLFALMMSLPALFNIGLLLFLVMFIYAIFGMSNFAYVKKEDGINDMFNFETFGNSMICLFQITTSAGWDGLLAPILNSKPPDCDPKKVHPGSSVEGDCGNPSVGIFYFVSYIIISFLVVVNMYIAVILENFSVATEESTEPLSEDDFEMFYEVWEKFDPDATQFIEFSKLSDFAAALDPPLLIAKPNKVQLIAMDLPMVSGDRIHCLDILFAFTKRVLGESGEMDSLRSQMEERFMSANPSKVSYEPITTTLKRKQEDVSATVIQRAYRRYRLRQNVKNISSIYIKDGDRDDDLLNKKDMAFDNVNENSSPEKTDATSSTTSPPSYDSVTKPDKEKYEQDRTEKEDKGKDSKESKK

Regarding `O=C(Nc1ccc(C(F)(F)F)cc1)c1cccc(-c2ccc3[nH]cc(C(=O)O)c3c2)n1` [Compound 139, 5-(6-((4-(trifluoromethyl)phenyl)carbamoyl)pyridin-2-yl)-1H-indole-3-carboxylic acid], the IC50 was greater than 20 µM.
The figure for `CC(C)Cn1ccc2cc(-c3cc(C(N)=O)nc([C@H](O)CO)c3)ccc21` [Compound 126, (S)-6-(1,2-dihydroxyethyl)-4-(1-isobutyl-1H-indol-5-yl)picolinamide] is 5.91 ± 0.536 µM.
Regarding `NC(=O)c1cc([C@H](O)CO)cc(-c2ccc3c(ccn3Cc3ccc(C(F)(F)F)cc3)c2)n1` [Compound 121, (S)-4-(1,2-dihydroxyethyl)-6-(1-(4-(trifluoromethyl)benzyl)-1H-indol-5-yl)picolinamide], the IC50 came to 2.37 ± 0.364 µM.
For the molecule `O=C(Nc1ccc(C(F)(F)F)cc1)c1cccc(-c2ccc3occc3c2)n1` [Compound 81, 6-(benzofuran-5-yl)-N-(4-(trifluoromethyl)phenyl)picolinamide], the IC50 amounted to 0.782 ± 0.044 µM.
As to `Cn1ccc2cc(-c3cccc(C(=O)Nc4ccc(C(F)(F)F)cc4)n3)ccc21` [Compound 75, 6-(1-methyl-1H-indol-5-yl)-N-(4-(trifluoromethyl)phenyl)picolinamide], the IC50 was determined as 3.03 ± 0.837 µM.
As for `C[C@H](Nc1cc(C(=O)Nc2ccc(C(F)(F)F)cc2)nc(-c2ccc3occc3c2)n1)C(N)=O` [Compound 79, (S)-6-((1-amino-1-oxopropan-2-yl)amino)-2-(benzofuran-5-yl)-N-(4-(trifluoromethyl)phenyl)pyrimidine-4-carboxamide], the IC50 is greater than 20 µM.
As for `O=C(NC1CCCCC1)c1cccc(-c2ccc3[nH]ccc3c2)n1` [Compound 76, N-cyclohexyl-6-(1H-indol-5-yl)picolinamide], the IC50 came out at 0.167 ± 0.02 µM.
`Cc1ccc(Cn2ccc3cc(-c4cccc(C(N)=O)n4)ccc32)cc1` [Compound 62, 6-(1-(4-methylbenzyl)-1H-indol-5-yl)picolinamide]: the IC50 was greater than 20 µM.
Take `CC(C)Cn1ccc2cc(-c3cc([C@@H](O)CO)cc(C(N)=O)n3)ccc21` [Compound 125, (R)-4-(1,2-dihydroxyethyl)-6-(1-isobutyl-1H-indol-5-yl)picolinamide]: the IC50 was greater than 20 µM.
For `NC(=O)c1c[nH]c2ccc(-c3cccc(C(=O)Nc4ccc(C(F)(F)F)cc4)n3)cc12` [Compound 140, 5-(6-((4-(trifluoromethyl)phenyl)carbamoyl)pyridin-2-yl)-1H-indole-3-carboxamide], the IC50 was greater than 20 µM.
For `O=C(NCC1CCCCC1)c1cccc(-c2ccc3[nH]ccc3c2)n1` [Compound 83, N-(cyclohexylmethyl)-6-(1H-indol-5-yl)picolinamide] the value was 0.18 ± 0.031 µM; for `O=C(Nc1ccc(C(F)(F)F)cc1)c1cccc(-c2ccc3[nH]ccc3c2)n1` [Compound 32, 6-(1H-indol-5-yl)-N-(4-(trifluoromethyl)phenyl)picolinamide], 0.233 ± 0.035 µM.
Take `CC(C)Cn1ccc2cc(-c3cc([C@H](O)CO)cc(C(N)=O)n3)ccc21` [Compound 124, (S)-4-(1,2-dihydroxyethyl)-6-(1-isobutyl-1H-indol-5-yl)picolinamide]: the IC50 amounted to 4.92 ± 0.7 µM.
With `NC(=O)CC[C@H](NC(=O)c1c[nH]c2ccc(-c3cccc(C(=O)Nc4ccc(C(F)(F)F)cc4)n3)cc12)C(N)=O` [Compound 141, (S)-2-(5-(6-((4-(trifluoromethyl)phenyl)carbamoyl)pyridin-2-yl)-1H-indole-3-carboxamido)pentanediamide], the IC50 is greater than 20 µM.
With `OC[C@@H](O)c1cccc(-c2ccc3c(c2)ncn3Cc2ccc(C(F)(F)F)cc2)n1` [Compound 110, (S)-1-(6-(1-(4-(trifluoromethyl)benzyl)-1H-benzo[d]imidazol-5-yl)pyridin-2-yl)ethane-1,2-diol], the IC50 came to 3.44 ± 0.712 µM.
For `Cn1cc(-c2cccc(C(F)(F)F)c2)c2cc(-c3cccc(C(N)=O)n3)ccc21` [Compound 129, 6-(1-methyl-3-(3-(trifluoromethyl)phenyl)-1H-indol-5-yl)picolinamide] the value was 10 to 20 µM.
For `CC(C)Cn1ccc2cc(-c3nc(N[C@@H](C)C(N)=O)cc(C(N)=O)n3)ccc21` [Compound 47, (S)-6-((1-amino-1-oxopropan-2-yl)amino)-2-(1-isobutyl-1H-indol-5-yl)pyrimidine-4-carboxamide] the value was 4.19 ± 0.862 µM; for `C[C@H](Nc1cc(C(N)=O)nc(-c2ccc3c(ccn3Cc3ccc(C(F)(F)F)cc3)c2)n1)C(N)=O` [Compound 112, (S)-6-((1-amino-1-oxopropan-2-yl)amino)-2-(1-(4-(trifluoromethyl)benzyl)-1H-indol-5-yl)pyrimidine-4-carboxamide], 4.12 ± 0.525 µM; for `Cc1nc(Cn2ccc3cc(-c4cccc(C(N)=O)n4)ccc32)cs1` [Compound 68, 6-(1-((2-methylthiazol-4-yl)methyl)-1H-indol-5-yl)picolinamide], 10 to 20 µM.
As to `OC[C@H](O)c1ccnc(-c2ccc3ncn(-c4ccc(C(F)(F)F)cc4)c3c2)n1` [Compound 50, (R)-1-(2-(1-(4-(trifluoromethyl)phenyl)-1H-benzo[d]imidazol-6-yl)pyrimidin-4-yl)ethane-1,2-diol], the IC50 is greater than 20 µM.
Turning to `CC(C)Cn1ccc2cc(-c3cccc([C@H](O)[C@@H](O)C(N)=O)n3)ccc21` [Compound 153, (2R,3S)-2,3-dihydroxy-3-(6-(1-isobutyl-1H-indol-5-yl)pyridin-2-yl)propanamide], the IC50 is 2.62 ± 0.071 µM.
As for `C[C@H](Nc1cc(C(=O)Nc2ccc(C(F)(F)F)cc2)nc(-c2ccc3[nH]ccc3c2)n1)C(N)=O` [Compound 80, (S)-6-((1-amino-1-oxopropan-2-yl)amino)-2-(1H-indol-5-yl)-N-(4-(trifluoromethyl)phenyl)pyrimidine-4-carboxamide], the IC50 is greater than 20 µM.
The figure for `CCN(CC)CCn1cc(-c2ccc(F)cc2)c2ccc(-c3cccc(C(N)=O)n3)cc21` [Compound 131, 6-(1-(2-(diethylamino)ethyl)-3-(4-fluorophenyl)-1H-indol-6-yl)picolinamide] is greater than 20 µM; for `NC(=O)c1cccc(-c2ccc3c(ccn3CCN3CCOCC3)c2)n1` [Compound 65, 6-(1-(2-morpholinoethyl)-1H-indol-5-yl)picolinamide] it is greater than 20 µM; for `NC(=O)c1cc(-c2ccc3c(ccn3Cc3ccc(C(F)(F)F)cc3)c2)cc([C@@H](O)CO)n1` [Compound 122, (R)-6-(1,2-dihydroxyethyl)-4-(1-(4-(trifluoromethyl)benzyl)-1H-indol-5-yl)picolinamide] it is 1.74 ± 0.214 µM.
With `OC[C@@H](O)c1cccc(-c2ccc3nn(Cc4ccc(C(F)(F)F)cc4)cc3c2)n1` [Compound 108, (S)-1-(6-(2-(4-(trifluoromethyl)benzyl)-2H-indazol-5-yl)pyridin-2-yl)ethane-1,2-diol], the IC50 came to 4.68 ± 0.412 µM.
For the molecule `C[C@H](Nc1cc(C(N)=O)nc(-c2ccc3[nH]ccc3c2)n1)C(N)=O` [Compound 35, (S)-6-((1-amino-1-oxopropan-2-yl)amino)-2-(1H-indol-5-yl)pyrimidine-4-carboxamide], the IC50 was greater than 20 µM.
On to `O=C(c1cccc(-c2ccc3[nH]ccc3c2)n1)N1CCCC1` [Compound 84, (6-(1H-indol-5-yl)pyridin-2-yl)(pyrrolidin-1-yl)methanone], for which the IC50 is greater than 20 µM.
Regarding `NC(=O)c1cccc(-c2ccc3c(c2)c(CN[C@H]2CCNC2=O)cn3Cc2ccc(C(F)(F)F)cc2)n1` [Compound 144, (S)-6-(3-(((2-oxopyrrolidin-3-yl)amino)methyl)-1-(4-(trifluoromethyl)benzyl)-1H-indol-5-yl)picolinamide], the IC50 is 2.54 ± 0.181 µM.
In the case of `NC(=O)c1cccc(-c2ccc3c(ccn3Cc3ccncc3)c2)n1` [Compound 64, 6-(1-(pyridin-4-ylmethyl)-1H-indol-5-yl)picolinamide], the IC50 is greater than 20 µM.

The IC50 is the concentration needed to halve the response being measured.
